Experimental findings from publication PMC6332318, “Synthetic Development of New 3-(4-Arylmethylamino)butyl-5-arylidene-rhodanines under Microwave Irradiation and Their Effects on Tumor Cell Lines and against Protein Kinases” (Molecules, 2015) are described below.

pIC50: −log10 of the molar value.

Data set [1] relates to diploid skin fibroblasts. Description: in vitro inhibition of cell proliferation / survival assay, normal cells control. The format is cell-based. The note with it: Skin fibroblast, Fibroblasts; for viability at 25 µM: measured at 25 μM after 48 h, single dose, triplicate, read-out: % of Survival. As for the experimental part:
(§1) As an initial effort to investigate their in vitro bioactivity, the new synthesized 3-(4-arylmethylamino)butyl-2-thioxo-1,3-thiazolidine-4-one 9a–n and also their precursors 6a–f were evaluated for their in vitro inhibition of cell proliferation. For this study, we used a panel of seven representative tumoral cell lines, namely HuH7 D12 (differential hepato cellular carcinoma), Caco 2 (differentiating colorectal adenocarcinoma), MDA-MBD231 ([…]), HCT 116 (actively proliferating colorectal adenocarcinoma), PC3 (prostate carcinoma), NCI-H727 (lung carcinoma), HaCat keratinocyte and, diploid skin fibroblasts as normal cell lines for control.
(§2) Skin diploid fibroblastic cells were provided by BIOPREDIC International Company (Rennes, France). Caco2 (Ref ECACC: 86010202), Huh-7D12 (Ref ECACC: 01042712), MDA-MB-231 (Ref ECACC: 92020424), HCT-116 (Ref ECACC: 91091005), PC3 (Ref ECACC: 90112714), NCI-H727 (Ref ECACC: 94060303) cell lines were obtained from the ECACC collection and HaCaT (from Cell Lines Service, Eppelheim, Germany). Cells were grown according to ECACC recommendations. The toxicity test of the compounds on these cells was as follows: 2 × 10^3 cells for HCT-116 cells or 4 × 10^3 for the other cells were seeded in 96 multiwell plates in triplicate and left for 24 h for attachment, spreading and growing. Then, cells were exposed for 48 h to increasing concentrations of the compounds, ranging from 0.1 to 25 μM in a final volume of 120 μL of culture medium. Cells were fixed in cooled solution of 90% ethanol/5% acetic acid, nuclei were stained with Hoechst 3342 (Sigma) and counted using automated imaging analysis (Cellomics Arrayscan VTI/HCS Reader, Thermo/Scientific, Waltham, MA, USA). The IC50 were graphically determined.

Data set [2] relates to HaCat keratinocyte. Description: in vitro inhibition of cell proliferation / survival assay. The format is cell-based. The conditions noted are these: Homo sapiens; for viability at 25 µM: measured at 25 μM after 48 h, single dose, triplicate. The protocol: as §1, §2
Data set [3] deals with NCI-H727 cells (lung carcinoma). The description is as above. The format is cell-based. The conditions noted are these: Homo sapiens, NCI-H727; for viability at 25 µM: measured at 25 μM after 48 h, single dose, triplicate, read-out: % of Survival. As for the experimental part:
as §1, §2

Data set [4] concerns Huh7 D12 cells (differential hepato cellular carcinoma). The data set is described as above. The format is cell-based. The conditions noted are these: for viability at 25 µM: Huh-7D12, measured at 25 μM after 48 h, single dose, triplicate. The protocol: as §1, §2
Data set [5] concerns Caco 2 cells (differentiating colorectal adenocarcinoma). The description is as above. The note with it: Homo sapiens; for viability at 25 µM: measured at 25 μM after 48 h, single dose, triplicate. It counts as cell-based. The protocol: as §1, §2
In data set [6] the test system is MDA-MB231 cells. The description is as above. It counts as cell-based. The note with it: Homo sapiens; for viability at 25 µM: MDA-MB-231, measured at 25 μM after 48 h, single dose, triplicate. As for the experimental part: as §1, §2
Data set [7] has as its system HCT 116 cells (actively proliferating colorectal adenocarcinoma). Described as above. The format is cell-based. The conditions noted are these: Homo sapiens; for viability at 25 µM: measured at 25 μM after 48 h, single dose, triplicate. As for the experimental part: as §1, §2
The subject of data set [8] is PC3 cells (prostate carcinoma). The data set is described as above. The format is cell-based. The conditions noted are these: Homo sapiens; for viability at 25 µM: PC-3, measured at 25 μM after 48 h, single dose, triplicate. As for the experimental part: as §1, §2
In data set [9] the test system is panel of seven representative tumoral cell lines. The experiment in a line: in vitro inhibition of cell proliferation, whole panel. The format is cell-based. The note with it: all cell lines of the panel, without selectivity; read-out: IC50, moderate antitumor activities in all cell lines of the panel. The protocol: as §1
as §2, with “The toxicity test of the compounds on these cells was as follows: 2 × 10^3 cells for HCT-116 cells or 4 × 10^3 for the other cells were seeded in 96 multiwell plates in triplicate and left for 24 h for attachment, spreading and growing. Then, cells were exposed for 48 h to increasing concentrations of the compounds, ranging from 0.1 to 25 μM in a final volume of 120 μL of culture medium.” left out

[10] abbreviates: 48 h, average of three assays, standard error ± 0.5 μM.

The term melting point denotes the temperature, or range, at which the solid turns liquid. With `Cl.NCCCCNCc1ccccc1` [Compound 6a, N-1-Phenylmethyl-butane-1,4-diamine hydrochloride], the melting point is greater than 260 °C. For the same compound, the viability at 25 µM in data set [1] amounted to 93%. Besides, the viability at 25 µM in data set [2] was determined as 97%. In addition, the viability at 25 µM in data set [3] stood at 97%. For the same compound, the viability at 25 µM in data set [4] is 102%. Besides, the viability at 25 µM in data set [5] was determined as 114%. The viability at 25 µM in [6] stood at 104%. Also, in data set [7], the viability at 25 µM stood at 112%. Further, the viability at 25 µM in data set [8] amounted to 100%.

As for `COc1ccc(CNCCCCN2C(=O)/C(=C/c3ccc4c(c3)OCO4)SC2=S)cc1` [Compound 9a, (5Z)3-[4-(4-Methoxyphenylmethylamino)butyl]-5-(1,3-benzodioxol-5-ylmethylene)-2-thioxo-1,3-thiazolidin-4-one], the melting point was 170 to 229 °C (dec.). Also, in data set [1], the viability at 25 µM was 104%. For the same compound, the viability at 25 µM in [2] was found to be 103%. Besides, the viability at 25 µM in data set [3] worked out at 104%. The viability at 25 µM in [4] is 85%. In addition, in [5], the viability at 25 µM is 109%. For the same compound, in data set [6], the viability at 25 µM is 100%. The viability at 25 µM in data set [7] was 109%. In data set [8], the viability at 25 µM amounted to 92%.

The compound `COc1cccc(/C=C2\SC(=S)N(CCCCNCc3cccc(OC)c3)C2=O)c1` [Compound 9g, (5Z)3-[4-(3-Methoxyphenylmethylamino)butyl]-5-(3-methoxybenzylidene)-2-thioxo-1,3-thiazolidin-4-one] registered a melting point of 225 to 227 °C. For the same compound, the viability at 25 µM in [1] was 100%. Moreover, the viability at 25 µM in data set [2] is 110%. The viability at 25 µM in [3] was determined as 95%. In addition, the viability at 25 µM in data set [4] came to 111%. Moreover, in [5], the viability at 25 µM worked out at 117%. Besides, the viability at 25 µM in data set [6] turned out to be 104%. In addition, the viability at 25 µM in data set [7] came out at 118%. Moreover, the viability at 25 µM in [8] is 98%.

In the case of `Cl.NCCCCNCc1ccc2c(c1)OCO2` [Compound 6e, N-1-Benzo[1,3]dioxol-5-ylmethyl-butane-1,4-diamine hydrochloride], the melting point is greater than 260 °C. Further, in [1], the viability at 25 µM stood at 93%. Besides, in data set [2], the viability at 25 µM was 96%. In data set [3], the viability at 25 µM was found to be 98%. Besides, the viability at 25 µM in [4] turned out to be 91%. Besides, the viability at 25 µM in [5] was 106%. In addition, the viability at 25 µM in [6] turned out to be 102%. The viability at 25 µM in data set [7] was 102%. In addition, the viability at 25 µM in data set [8] is 96%.

The pIC50 is the IC50 on a negative log10 scale, so that one unit is a factor of ten. `COc1ccc(CNCCCCN2C(=O)/C(=C/c3ccc(O)c(OC)c3)SC2=S)cc1` [Compound 9d, (5Z)3-[4-(4-Methoxyphenylmethylamino)butyl]-5-(4-hydroxy-3-methoxybenzylidene)-2-thioxo-1,3-thiazolidin-4-one] had a melting point of 191 to 193 °C. In data set [1] (setting [10]), this compound showed a pIC50 of less than 4.60. In data set [1], the viability at 25 µM worked out at 29%. Moreover, the pIC50 in [9] was 4.77 to 5.00. Besides, in data set [2] (HaCaT, 48 h, average of three assays, standard error ± 0.5 μM), the pIC50 was 5.00. Also, in data set [2], the viability at 25 µM worked out at 2%. Further, the pIC50 in data set [3] (setting [10]) was 5.00. Moreover, the viability at 25 µM in [3] was determined as 11%. In data set [4] (Huh-7D12, 48 h, average of three assays, standard error ± 0.5 μM), this compound gave a pIC50 of 5.00. The viability at 25 µM in data set [4] turned out to be 7%. The pIC50 in [5] (setting [10]) is 4.82. The viability at 25 µM in [5] was 23%. The pIC50 in data set [6] (MDA-MB-231, 48 h, average of three assays, standard error ± 0.5 μM) was 4.96. Further, the viability at 25 µM in [6] came out at 15%. In [7] (setting [10]), this compound had a negative logarithm of the IC50 (pIC50) of 5.00. Further, the viability at 25 µM in data set [7] amounted to 1%. In [8] (PC-3, 48 h, average of three assays, standard error ± 0.5 μM), this compound had a pIC50 of 4.77. For the same compound, in data set [8], the viability at 25 µM was found to be 41%.

`COc1ccc(/C=C2\SC(=S)N(CCCCNCc3ccc(OC)cc3)C2=O)cc1` [Compound 9b, (5Z)3-[4-(4-Methoxyphenylmethylamino)butyl]-5-(4-methoxybenzylidene)-2-thioxo-1,3-thiazolidin-4-one] came in with a melting point of 253 to 255 °C. Further, in data set [1], the viability at 25 µM is 167%. In addition, the viability at 25 µM in [2] was determined as 104%. In addition, the viability at 25 µM in data set [3] was 90%. In addition, the viability at 25 µM in data set [4] came out at 105%. The viability at 25 µM in data set [5] worked out at 108%. In addition, the viability at 25 µM in data set [6] is 97%. Also, the viability at 25 µM in data set [7] was found to be 102%. For the same compound, the viability at 25 µM in data set [8] amounted to 99%.

For `COc1cc(/C=C2\SC(=S)N(CCCCNCc3ccc4c(c3)OCO4)C2=O)ccc1O` [Compound 9k, (5Z)3-[4-(1,3-Benzodioxol-5-ylmethylamino)butyl]-5-(4-hydroxy-3-methoxybenzylidene)-2-thioxo-1,3-thiazolidin-4-one], the melting point lay in the range of 200 to 203 °C. Besides, in data set [1], the viability at 25 µM stood at 84%. Moreover, the viability at 25 µM in [2] is 80%. The viability at 25 µM in data set [3] was determined as 96%. In addition, the viability at 25 µM in data set [4] was 72%. Further, the viability at 25 µM in data set [5] was 98%. Also, the viability at 25 µM in data set [6] came out at 92%. The viability at 25 µM in [7] came out at 98%. Moreover, in data set [8], the viability at 25 µM is 83%.
